Data from ChEMBL document CHEMBL4330091, “The discovery and optimization of benzimidazoles as selective NaV1.8 blockers for the treatment of pain” (Bioorg Med Chem, 2019).
Values after ≈ are worked out from the molar mass of the structure shown.

Assays:
[1] = target: Sodium channel protein type 10 subunit alpha (Homo sapiens, UniProt Q9Y5Y9); test: Inhibition of human Nav1.8 expressed in HEK cells by patch-clamp electrophysiology method; type: cell-based
[2] = target: Sodium channel protein type 1 subunit alpha (Homo sapiens, UniProt P35498); test: Inhibition of human Nav1.1
[3] = target: Sodium channel protein type 2 subunit alpha (Homo sapiens, UniProt Q99250); test: Inhibition of human Nav1.2
[4] = target: Sodium channel protein type 5 subunit alpha (Homo sapiens, UniProt Q14524); test: Inhibition of human Nav1.5
Sodium channel protein type 5 subunit alpha, sequence (Q14524 whole entry): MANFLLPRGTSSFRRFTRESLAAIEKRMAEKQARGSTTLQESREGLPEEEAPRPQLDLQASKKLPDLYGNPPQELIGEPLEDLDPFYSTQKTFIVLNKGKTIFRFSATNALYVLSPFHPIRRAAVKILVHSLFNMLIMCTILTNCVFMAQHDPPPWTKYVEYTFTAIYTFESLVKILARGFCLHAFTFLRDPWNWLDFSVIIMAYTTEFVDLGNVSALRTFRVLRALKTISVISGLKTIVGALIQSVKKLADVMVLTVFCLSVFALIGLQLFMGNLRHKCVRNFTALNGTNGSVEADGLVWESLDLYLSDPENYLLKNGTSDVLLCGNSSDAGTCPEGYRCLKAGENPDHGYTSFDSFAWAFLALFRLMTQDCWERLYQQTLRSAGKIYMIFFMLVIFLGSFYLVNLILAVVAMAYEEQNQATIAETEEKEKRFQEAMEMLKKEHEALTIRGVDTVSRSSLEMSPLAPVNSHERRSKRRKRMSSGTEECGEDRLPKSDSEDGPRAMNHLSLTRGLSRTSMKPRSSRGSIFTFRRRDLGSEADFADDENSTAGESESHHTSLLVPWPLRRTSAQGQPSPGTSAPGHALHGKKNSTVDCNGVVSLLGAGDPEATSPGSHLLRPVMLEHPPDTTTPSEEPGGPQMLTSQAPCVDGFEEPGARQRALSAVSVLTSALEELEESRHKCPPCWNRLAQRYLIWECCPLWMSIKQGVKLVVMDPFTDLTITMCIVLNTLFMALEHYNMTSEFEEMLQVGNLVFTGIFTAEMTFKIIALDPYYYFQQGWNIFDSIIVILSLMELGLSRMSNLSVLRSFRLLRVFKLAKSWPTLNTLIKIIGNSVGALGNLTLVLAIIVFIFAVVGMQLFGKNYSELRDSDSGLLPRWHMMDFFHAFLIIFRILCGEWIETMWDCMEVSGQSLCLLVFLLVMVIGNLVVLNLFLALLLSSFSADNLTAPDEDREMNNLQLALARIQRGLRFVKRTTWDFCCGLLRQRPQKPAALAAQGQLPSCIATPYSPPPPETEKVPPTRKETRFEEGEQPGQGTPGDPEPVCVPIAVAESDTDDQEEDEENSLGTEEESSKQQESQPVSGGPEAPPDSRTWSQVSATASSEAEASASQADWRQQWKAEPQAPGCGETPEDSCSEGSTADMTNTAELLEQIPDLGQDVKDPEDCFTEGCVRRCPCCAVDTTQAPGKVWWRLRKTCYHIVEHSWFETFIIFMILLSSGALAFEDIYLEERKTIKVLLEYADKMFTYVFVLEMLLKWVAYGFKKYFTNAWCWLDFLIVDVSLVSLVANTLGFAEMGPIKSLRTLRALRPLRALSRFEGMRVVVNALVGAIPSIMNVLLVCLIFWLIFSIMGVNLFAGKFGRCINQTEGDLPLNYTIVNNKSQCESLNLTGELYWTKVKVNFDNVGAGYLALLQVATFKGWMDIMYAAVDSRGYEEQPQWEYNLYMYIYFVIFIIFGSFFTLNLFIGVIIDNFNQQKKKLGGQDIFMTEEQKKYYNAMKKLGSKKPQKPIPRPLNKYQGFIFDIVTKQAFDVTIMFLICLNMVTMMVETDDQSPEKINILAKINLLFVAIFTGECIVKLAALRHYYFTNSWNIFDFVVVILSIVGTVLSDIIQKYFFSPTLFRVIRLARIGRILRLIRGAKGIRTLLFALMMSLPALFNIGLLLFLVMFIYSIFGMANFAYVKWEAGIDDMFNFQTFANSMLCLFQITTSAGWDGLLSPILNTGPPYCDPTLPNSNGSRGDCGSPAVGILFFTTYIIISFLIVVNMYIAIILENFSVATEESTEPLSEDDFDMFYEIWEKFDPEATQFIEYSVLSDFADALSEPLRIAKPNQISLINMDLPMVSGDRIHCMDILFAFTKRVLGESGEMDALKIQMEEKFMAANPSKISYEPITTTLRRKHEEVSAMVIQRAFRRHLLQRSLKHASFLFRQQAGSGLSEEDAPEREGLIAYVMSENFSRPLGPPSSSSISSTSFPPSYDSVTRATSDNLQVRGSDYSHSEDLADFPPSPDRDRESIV

[5] = target: Voltage-gated inwardly rectifying potassium channel KCNH2 (Homo sapiens, UniProt Q12809); test: Inhibition of human ERG
Voltage-gated inwardly rectifying potassium channel KCNH2, sequence (Q12809 whole entry): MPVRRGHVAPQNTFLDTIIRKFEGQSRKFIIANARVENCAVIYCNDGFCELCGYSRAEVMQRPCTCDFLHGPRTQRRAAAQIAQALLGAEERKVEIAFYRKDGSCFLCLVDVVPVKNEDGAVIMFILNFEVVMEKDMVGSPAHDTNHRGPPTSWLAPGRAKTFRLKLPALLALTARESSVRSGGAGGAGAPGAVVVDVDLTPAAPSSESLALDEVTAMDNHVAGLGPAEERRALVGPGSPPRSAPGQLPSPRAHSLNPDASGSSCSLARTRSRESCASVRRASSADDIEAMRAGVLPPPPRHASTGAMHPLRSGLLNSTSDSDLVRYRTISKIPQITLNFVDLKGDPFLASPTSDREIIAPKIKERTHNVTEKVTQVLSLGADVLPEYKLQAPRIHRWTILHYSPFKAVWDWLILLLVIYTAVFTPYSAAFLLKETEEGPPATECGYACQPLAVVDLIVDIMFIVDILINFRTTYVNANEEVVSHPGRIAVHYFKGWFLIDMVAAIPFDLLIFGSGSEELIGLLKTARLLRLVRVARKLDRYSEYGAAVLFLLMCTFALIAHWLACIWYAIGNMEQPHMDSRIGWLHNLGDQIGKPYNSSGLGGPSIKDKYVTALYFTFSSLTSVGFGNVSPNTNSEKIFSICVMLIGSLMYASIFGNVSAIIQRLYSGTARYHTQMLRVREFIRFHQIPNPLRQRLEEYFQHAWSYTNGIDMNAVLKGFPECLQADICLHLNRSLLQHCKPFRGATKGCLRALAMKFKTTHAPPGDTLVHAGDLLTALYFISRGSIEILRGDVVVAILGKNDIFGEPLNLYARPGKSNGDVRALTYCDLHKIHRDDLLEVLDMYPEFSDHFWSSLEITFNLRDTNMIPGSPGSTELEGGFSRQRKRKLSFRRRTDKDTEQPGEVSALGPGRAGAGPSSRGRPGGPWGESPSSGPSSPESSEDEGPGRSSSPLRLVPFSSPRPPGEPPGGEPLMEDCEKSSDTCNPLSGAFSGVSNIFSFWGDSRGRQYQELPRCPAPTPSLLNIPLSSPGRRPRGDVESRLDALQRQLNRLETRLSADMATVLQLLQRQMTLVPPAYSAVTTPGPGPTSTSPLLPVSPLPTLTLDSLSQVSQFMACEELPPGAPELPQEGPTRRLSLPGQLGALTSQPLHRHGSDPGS

[6] = Apparent permeability from apical to basolateral in RRCK cells; type: ADME, cell-based, Canis lupus familiaris, MDCKII-LE; conditions: dog, MDCK
[7] = Stability in human liver microsomes assessed per mg protein; type: ADME, Microsome
[8] = Stability in human hepatocytes assessed per million cells; type: ADME, cell-based, Hepatocyte
[9] = Lipophilicity, log D of the compound; type: physicochemical; conditions: octanol/water
[10] = Dissociation constant, pKa of the compound; type: physicochemical
[11] = Solubility of the compound at pH 7.4; type: physicochemical; conditions: buffer
[12] = target: Sodium channel protein type 3 subunit alpha (Homo sapiens, UniProt Q9NY46); test: Inhibition of human Nav1.3
[13] = target: Sodium channel protein type 4 subunit alpha (Homo sapiens, UniProt P35499); test: Inhibition of human Nav1.4
[14] = target: Sodium channel protein type 8 subunit alpha (Homo sapiens, UniProt Q9UQD0); test: Inhibition of human Nav1.6
[15] = target: Sodium channel protein type 9 subunit alpha (Homo sapiens, UniProt Q15858); test: Inhibition of human Nav1.7
[16] = target: T1, Potassium voltage-gated channel subfamily KQT member 1 (Homo sapiens, UniProt P51787); test: Inhibition of KvLQT1 (unknown origin)
T1 sequence (P51787 whole entry): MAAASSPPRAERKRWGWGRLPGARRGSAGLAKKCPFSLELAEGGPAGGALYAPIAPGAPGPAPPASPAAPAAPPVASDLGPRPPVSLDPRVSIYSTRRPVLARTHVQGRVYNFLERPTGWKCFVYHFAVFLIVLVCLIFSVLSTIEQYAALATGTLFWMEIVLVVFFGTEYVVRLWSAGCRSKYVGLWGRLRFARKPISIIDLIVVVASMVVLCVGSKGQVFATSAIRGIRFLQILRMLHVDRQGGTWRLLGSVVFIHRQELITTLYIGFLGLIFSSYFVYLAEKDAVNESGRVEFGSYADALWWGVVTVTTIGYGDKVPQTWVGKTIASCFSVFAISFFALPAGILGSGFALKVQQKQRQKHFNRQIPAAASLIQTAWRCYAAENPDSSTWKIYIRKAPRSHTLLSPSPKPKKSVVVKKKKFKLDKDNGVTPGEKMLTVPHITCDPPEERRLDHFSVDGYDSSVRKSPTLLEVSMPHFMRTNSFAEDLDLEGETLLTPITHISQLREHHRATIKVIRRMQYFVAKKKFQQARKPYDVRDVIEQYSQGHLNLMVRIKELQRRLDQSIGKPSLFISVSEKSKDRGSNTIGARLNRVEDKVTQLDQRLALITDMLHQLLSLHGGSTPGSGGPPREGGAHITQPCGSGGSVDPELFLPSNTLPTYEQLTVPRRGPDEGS

[17] = target: Potassium voltage-gated channel subfamily A member 5 (Homo sapiens, UniProt P22460); test: Inhibition of Kv1.5 (unknown origin)
[18] = target: Potassium voltage-gated channel subfamily A member 1 (Homo sapiens, UniProt Q09470); test: Inhibition of Kv1.1 (unknown origin)
[19] = target: Potassium voltage-gated channel subfamily A member 2 (Homo sapiens, UniProt P16389); test: Inhibition of Kv1.2 (unknown origin)
[20] = target: Small conductance calcium-activated potassium channel protein 2 (Homo sapiens, UniProt Q9H2S1); test: Inhibition of SK2 (unknown origin)
[21] = target: Voltage-gated T-type calcium channel (Homo sapiens, UniProt O95180+O43497+Q9P0X4); test: Inhibition of T-type calcium channel (unknown origin); type: protein assay
[22] = target: Voltage-gated L-type calcium channel (Homo sapiens, UniProt Q13936+Q13698+Q01668+O60840); test: Inhibition of L-type calcium channel (unknown origin); type: protein assay
[23] = target: T2, Gamma-aminobutyric acid receptor subunit alpha-1/gamma-2 (Homo sapiens, UniProt P14867+P18507); test: Inhibition of GABA receptor alpha1gamma2 (unknown origin); type: protein-complex assay
T2 sequence (P14867 whole entry): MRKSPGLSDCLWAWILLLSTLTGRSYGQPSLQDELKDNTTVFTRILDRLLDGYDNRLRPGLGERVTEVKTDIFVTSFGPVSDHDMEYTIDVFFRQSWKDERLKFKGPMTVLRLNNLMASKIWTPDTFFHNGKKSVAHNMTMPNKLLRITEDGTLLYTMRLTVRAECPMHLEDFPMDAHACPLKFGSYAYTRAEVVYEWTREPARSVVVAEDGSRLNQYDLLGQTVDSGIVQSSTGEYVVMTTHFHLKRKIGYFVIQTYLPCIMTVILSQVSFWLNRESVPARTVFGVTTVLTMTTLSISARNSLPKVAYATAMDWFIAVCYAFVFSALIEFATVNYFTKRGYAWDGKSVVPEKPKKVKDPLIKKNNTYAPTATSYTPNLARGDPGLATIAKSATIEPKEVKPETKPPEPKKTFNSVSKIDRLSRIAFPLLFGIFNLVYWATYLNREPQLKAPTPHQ
T2 sequence (P18507 whole entry): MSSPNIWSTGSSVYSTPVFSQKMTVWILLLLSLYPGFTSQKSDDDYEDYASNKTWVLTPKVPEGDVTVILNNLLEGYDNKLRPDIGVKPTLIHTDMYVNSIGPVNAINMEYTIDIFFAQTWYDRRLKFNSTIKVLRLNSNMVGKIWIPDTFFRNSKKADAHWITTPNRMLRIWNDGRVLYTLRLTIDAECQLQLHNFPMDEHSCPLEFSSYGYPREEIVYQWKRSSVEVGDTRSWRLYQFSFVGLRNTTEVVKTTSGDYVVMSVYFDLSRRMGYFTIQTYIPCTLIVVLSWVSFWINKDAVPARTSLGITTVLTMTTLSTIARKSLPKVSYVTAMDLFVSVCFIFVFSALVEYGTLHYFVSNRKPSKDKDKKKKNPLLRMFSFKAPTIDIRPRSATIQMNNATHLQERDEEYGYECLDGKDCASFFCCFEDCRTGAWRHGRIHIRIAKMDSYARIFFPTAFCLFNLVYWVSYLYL

[24] = Plasma clearance in rat at 1 mg/kg, iv or 3 mg/kg, po; type: ADME, organism-based
[25] = Unbound clearance in rat at 1 mg/kg, iv or 3 mg/kg, po; type: ADME, organism-based; conditions: in vivo
[26] = Half life in rat at 1 mg/kg, iv or 3 mg/kg, po; type: ADME, organism-based; conditions: in vivo
[27] = AUC (0 to infinity) in rat at 1 mg/kg, iv or 3 mg/kg, po; type: ADME, organism-based; conditions: in vivo
[28] = Volume of distribution in rat at 1 mg/kg, iv or 3 mg/kg, po; type: ADME, organism-based; conditions: in vivo
[29] = Oral bioavailability in rat at 3 mg/kg; type: ADME, organism-based; conditions: in vivo
Nav1.5 (SCN5A) = Nav1.5 (SCN5A) (Homo sapiens, UniProt Q14524); test: Inhibition of human Nav1.5 at 10 uM

Sodium channel protein type 10 subunit alpha, sequence (Q9Y5Y9 whole entry): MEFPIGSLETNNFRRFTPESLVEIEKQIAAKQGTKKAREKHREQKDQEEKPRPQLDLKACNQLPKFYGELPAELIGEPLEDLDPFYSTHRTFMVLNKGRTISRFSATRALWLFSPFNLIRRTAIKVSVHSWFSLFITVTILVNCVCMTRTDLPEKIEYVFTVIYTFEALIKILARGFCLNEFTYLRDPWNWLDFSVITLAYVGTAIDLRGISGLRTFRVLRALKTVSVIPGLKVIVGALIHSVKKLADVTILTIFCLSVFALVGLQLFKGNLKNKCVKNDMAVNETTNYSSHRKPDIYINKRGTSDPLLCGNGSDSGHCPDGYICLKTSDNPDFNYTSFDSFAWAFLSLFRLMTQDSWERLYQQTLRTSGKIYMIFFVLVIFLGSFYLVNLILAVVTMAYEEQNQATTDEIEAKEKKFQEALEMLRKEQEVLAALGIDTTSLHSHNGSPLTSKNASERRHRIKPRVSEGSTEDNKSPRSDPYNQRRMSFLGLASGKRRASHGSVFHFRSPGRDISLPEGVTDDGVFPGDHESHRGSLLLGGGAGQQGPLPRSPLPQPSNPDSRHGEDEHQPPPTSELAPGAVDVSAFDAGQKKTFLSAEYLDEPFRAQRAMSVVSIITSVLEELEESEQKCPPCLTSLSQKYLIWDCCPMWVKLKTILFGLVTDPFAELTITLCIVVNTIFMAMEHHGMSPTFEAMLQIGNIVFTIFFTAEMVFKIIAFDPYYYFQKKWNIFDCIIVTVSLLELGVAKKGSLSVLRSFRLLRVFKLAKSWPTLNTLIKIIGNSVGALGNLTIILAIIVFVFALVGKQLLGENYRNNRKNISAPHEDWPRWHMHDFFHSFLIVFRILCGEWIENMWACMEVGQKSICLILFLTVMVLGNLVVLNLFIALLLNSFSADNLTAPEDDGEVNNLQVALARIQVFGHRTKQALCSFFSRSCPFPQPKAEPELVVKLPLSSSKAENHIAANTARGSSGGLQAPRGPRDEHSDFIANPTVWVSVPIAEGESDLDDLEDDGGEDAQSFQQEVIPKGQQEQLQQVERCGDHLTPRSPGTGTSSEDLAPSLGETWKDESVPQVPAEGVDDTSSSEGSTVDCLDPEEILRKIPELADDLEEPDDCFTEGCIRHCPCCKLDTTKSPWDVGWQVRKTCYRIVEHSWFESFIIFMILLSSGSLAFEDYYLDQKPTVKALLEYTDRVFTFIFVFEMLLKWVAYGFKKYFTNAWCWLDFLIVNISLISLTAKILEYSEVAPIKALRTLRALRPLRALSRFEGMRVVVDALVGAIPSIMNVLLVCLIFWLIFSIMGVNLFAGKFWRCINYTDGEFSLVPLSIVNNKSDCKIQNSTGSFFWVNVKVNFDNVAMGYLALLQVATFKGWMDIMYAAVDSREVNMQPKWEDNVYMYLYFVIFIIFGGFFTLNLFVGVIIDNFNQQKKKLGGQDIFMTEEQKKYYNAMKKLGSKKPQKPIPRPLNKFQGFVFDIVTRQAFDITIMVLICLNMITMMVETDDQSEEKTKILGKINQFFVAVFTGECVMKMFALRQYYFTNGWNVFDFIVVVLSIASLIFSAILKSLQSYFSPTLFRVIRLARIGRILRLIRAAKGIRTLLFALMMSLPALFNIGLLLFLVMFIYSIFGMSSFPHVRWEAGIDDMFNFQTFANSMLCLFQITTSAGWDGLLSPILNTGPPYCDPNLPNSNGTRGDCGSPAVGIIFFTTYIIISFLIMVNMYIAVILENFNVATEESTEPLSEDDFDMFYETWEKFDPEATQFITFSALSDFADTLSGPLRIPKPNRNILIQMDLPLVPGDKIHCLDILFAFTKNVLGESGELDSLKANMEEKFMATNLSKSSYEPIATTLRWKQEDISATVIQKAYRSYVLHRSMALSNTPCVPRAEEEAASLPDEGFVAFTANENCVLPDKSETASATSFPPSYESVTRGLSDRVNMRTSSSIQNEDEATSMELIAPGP

CN[C@@H](CC(N)=O)c1nc2cc(C(C)(C)C)ccc2[nH]1
IC50 [1]: 742 nM

CO[C@H](C)[C@H](N)c1nc2cc(C(C)(C)C)ccc2[nH]1
IC50 [1]: 24 nM

CC(C)(C)c1ccc2[nH]c([C@@](C)(N)CO)nc2c1
IC50 [1]: 65 nM

CC(C)(C)c1ccc2[nH]c([C@H]3CCCN3)nc2c1
IC50 [1]: 43 nM

C[C@@H](O)[C@H](N)c1nc2cc(S(F)(F)(F)(F)F)ccc2[nH]1
IC50 [1]: 95 nM

CC(C)(C)c1ccc2[nH]c([C@H]3C[C@@H](O)CN3)nc2c1
IC50 [1]: 31 nM

CO[C@H](C)[C@H](N)c1nc2cc(-c3ccc(C#N)cc3F)ccc2[nH]1
IC50 [1]: 18 nM

C[C@@H](O)[C@H](N)c1nc2cc(C(F)(F)F)ccc2[nH]1
IC50 [1]: 534 nM

C[C@H](O)[C@@H](N)c1nc2cc(-c3ccc(C#N)cc3)ccc2[nH]1
IC50 [1]: 579 nM

CC(C)(C)c1ccc2ncc([C@@H](N)CO)nc2c1
IC50 [1]: > 1000 nM

C[C@@H](O)[C@H](N)c1nc2cc(C(C)(C)C#N)ccc2[nH]1
IC50 [1]: 728 nM

CC1(c2ccc3[nH]c([C@@H](N)CO)nc3c2)CC1
IC50 [1]: 593 nM

C[C@@H](C(N)=O)[C@H](N)c1nc2ccc(C(C)(C)C)cc2[nH]1 [PF-06305591]
IC50 [1]: 15 nM | IC50 [2]: > 30000 nM | IC50 [3]: > 30000 nM | IC50 [4]: > 30000 nM | IC50 [5]: > 30000 nM | Papp A→B [6]: 3.5 ×10⁻⁶ cm/s | Stability [7]: < 11 µL/min | Stability [8]: < 2 µL/min | logD [9]: 2.1 | pKa [10]: 5.9 | solubility [11]: 2000 µg/mL (≈ 7.29 mM) | IC50 [12]: > 30000 nM | IC50 [13]: > 30000 nM | IC50 [14]: > 30000 nM | IC50 [15]: > 30000 nM | IC50 [16]: > 30000 nM | IC50 [17]: > 30000 nM | IC50 [18]: > 30000 nM | IC50 [19]: > 30000 nM | IC50 [20]: > 30000 nM | IC50 [21]: > 30000 nM | IC50 [22]: > 30000 nM | IC50 [23]: > 30000 nM | clearance [24]: 40 mL/min/kg | CL free [25]: 214 mL/min/kg | half-life [26]: 1.5 h | AUC(0-inf) [27]: 962 ng·h/mL | Vd [28]: 2.3 L/kg | bioavailability [29]: 61%

CCC(C)c1ccc2[nH]c([C@@H](N)CO)nc2c1 (stereo partly drawn)
IC50 [1]: 708 nM

CC(C)(C)c1ccc2ncc([C@H](N)CO)nc2c1
IC50 [1]: > 1000 nM

C[C@@H](C(N)=O)[C@H](N)c1cn2cc(C(C)(C)C)ccc2n1
IC50 [4]: > 10000 nM | IC50 [5]: > 72000 nM | Papp A→B [6]: 2.2 ×10⁻⁶ cm/s | Stability [7]: < 11 µL/min | Stability [8]: 2.5 µL/min | pKa [10]: 7

CC(C)(C)c1ccc2[nH]c(C(C)(C)N)nc2c1
IC50 [1]: 607 nM | inhibition at 10 µM (Nav1.5 (SCN5A)): 12%

CCC[C@H](N)c1nc2cc(C(C)(C)C)ccc2[nH]1
IC50 [1]: 2 nM

CC(C)(C)c1ccc2nc([C@H](N)CO)cnc2c1
IC50 [1]: > 1000 nM

CO[C@H](C)[C@H](N)c1nc2cc(OC(F)(F)F)ccc2[nH]1
IC50 [1]: 2570 nM

CO[C@H](C)[C@H](N)c1nc2cc(-c3ccc(C#N)nc3)ccc2[nH]1
IC50 [1]: 998 nM

CC(C)(C)c1ccc2nc([C@@H](N)CO)cnc2c1
IC50 [1]: > 1000 nM

CC(C)c1ccc2[nH]c([C@@H](N)[C@@H](C)O)nc2c1
IC50 [1]: 43 nM

CCCC(O)c1nc2cc(C(C)(C)C)ccc2[nH]1 (stereo not drawn)
IC50 [1]: > 1000 nM
